How the values were obtained:
[1] = Oral bioavailability in dog; format: ADME, organism-based, Canis lupus familiaris; details: in vivo
[2] = target: Neuronal acetylcholine receptor; alpha4/beta2 (Homo sapiens, UniProt P17787+P43681); experiment: Binding affinity to alpha4beta2 nAChR; format: protein-complex assay
[3] = Oral bioavailability in rat; format: ADME, organism-based; details: in vivo
[4] = target: T1, Neuronal acetylcholine receptor subunit alpha-7 (Homo sapiens, UniProt P36544); experiment: Agonist activity at alpha7 nAChR; format: functional
T1 sequence (P36544 whole entry): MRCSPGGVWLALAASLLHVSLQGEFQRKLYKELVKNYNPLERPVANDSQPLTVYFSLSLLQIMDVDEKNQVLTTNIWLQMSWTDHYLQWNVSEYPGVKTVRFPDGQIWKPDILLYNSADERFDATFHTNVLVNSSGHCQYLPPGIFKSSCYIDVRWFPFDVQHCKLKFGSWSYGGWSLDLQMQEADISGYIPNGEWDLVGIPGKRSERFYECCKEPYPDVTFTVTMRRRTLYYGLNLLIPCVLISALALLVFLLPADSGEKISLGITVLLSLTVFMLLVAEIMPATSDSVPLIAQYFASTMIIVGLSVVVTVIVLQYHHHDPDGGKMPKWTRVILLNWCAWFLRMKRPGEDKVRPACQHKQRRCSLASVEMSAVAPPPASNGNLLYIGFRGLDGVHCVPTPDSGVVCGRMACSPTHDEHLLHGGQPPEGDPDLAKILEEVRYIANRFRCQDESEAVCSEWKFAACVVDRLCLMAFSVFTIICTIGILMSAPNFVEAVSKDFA

[5] = Volume of distribution in dog; format: ADME, organism-based, Canis lupus familiaris; details: in vivo
[6] = Oral bioavailability in mouse; format: ADME, organism-based; details: in vivo
[7] = target: T1, Neuronal acetylcholine receptor subunit alpha-7; experiment: Binding affinity to alpha7 nAchR in human frontal cortex membranes; format: cell membranes, Membrane
[8] = Volume of distribution in rat; format: ADME, organism-based; details: in vivo
[9] = target: T2, Neuronal acetylcholine receptor subunit alpha-7 (Rattus norvegicus, UniProt Q05941); experiment: Binding affinity to alpha7 nAChR in rat brain membranes; format: cell membranes
T2 sequence (Q05941 whole entry): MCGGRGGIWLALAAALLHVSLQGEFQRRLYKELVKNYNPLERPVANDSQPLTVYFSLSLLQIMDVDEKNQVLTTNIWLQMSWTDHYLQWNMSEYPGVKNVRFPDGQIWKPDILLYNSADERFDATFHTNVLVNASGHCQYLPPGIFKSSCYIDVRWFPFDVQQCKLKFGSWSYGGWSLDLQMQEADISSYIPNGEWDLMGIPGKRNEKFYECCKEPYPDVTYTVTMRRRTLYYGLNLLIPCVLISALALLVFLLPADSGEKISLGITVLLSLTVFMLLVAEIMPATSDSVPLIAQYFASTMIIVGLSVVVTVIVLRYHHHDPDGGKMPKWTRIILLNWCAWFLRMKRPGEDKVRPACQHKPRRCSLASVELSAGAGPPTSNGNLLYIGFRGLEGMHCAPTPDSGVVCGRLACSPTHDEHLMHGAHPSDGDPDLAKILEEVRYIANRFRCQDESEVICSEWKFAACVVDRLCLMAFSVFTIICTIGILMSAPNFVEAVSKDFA

[10] = target: T3, 5-hydroxytryptamine receptor 3A (Homo sapiens, UniProt P46098); experiment: Displacement of [3H]-BRL-43694 from human 5HT3 receptor
T3 sequence (P46098 whole entry): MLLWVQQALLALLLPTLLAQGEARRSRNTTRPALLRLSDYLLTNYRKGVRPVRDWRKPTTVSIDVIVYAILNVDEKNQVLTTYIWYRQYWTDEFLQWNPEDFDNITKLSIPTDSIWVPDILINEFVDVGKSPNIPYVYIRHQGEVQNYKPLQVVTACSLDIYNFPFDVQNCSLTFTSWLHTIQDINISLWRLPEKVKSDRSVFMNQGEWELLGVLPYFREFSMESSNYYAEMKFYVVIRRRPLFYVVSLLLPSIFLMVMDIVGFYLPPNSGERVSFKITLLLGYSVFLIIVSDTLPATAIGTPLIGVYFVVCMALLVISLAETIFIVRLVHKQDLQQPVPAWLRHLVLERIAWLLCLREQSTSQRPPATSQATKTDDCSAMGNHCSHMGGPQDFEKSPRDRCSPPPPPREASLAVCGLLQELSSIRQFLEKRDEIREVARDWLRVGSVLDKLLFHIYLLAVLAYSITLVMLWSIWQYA

[11] = target: T2, Neuronal acetylcholine receptor subunit alpha-7; experiment: Displacement of [3H]-MLA from alpha7 nAChR in rat brain membranes; format: cell membranes
[12] = Volume of distribution in mouse; format: ADME, organism-based; details: in vivo

Sequence of Neuronal acetylcholine receptor; alpha4/beta2 (P17787 whole entry): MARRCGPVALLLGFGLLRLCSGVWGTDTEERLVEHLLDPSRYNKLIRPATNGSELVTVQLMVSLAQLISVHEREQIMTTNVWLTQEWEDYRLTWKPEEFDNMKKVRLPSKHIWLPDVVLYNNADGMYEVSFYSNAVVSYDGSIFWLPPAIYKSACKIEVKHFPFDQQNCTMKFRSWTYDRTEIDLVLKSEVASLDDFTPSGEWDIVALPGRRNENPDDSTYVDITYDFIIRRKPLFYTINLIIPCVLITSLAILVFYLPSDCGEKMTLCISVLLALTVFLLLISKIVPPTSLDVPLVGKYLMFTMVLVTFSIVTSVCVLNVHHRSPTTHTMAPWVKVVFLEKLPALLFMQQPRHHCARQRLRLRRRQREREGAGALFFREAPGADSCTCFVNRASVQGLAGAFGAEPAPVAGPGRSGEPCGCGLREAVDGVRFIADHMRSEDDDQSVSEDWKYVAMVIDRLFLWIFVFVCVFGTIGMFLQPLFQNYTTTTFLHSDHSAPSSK
Sequence of Neuronal acetylcholine receptor; alpha4/beta2 (P43681 whole entry): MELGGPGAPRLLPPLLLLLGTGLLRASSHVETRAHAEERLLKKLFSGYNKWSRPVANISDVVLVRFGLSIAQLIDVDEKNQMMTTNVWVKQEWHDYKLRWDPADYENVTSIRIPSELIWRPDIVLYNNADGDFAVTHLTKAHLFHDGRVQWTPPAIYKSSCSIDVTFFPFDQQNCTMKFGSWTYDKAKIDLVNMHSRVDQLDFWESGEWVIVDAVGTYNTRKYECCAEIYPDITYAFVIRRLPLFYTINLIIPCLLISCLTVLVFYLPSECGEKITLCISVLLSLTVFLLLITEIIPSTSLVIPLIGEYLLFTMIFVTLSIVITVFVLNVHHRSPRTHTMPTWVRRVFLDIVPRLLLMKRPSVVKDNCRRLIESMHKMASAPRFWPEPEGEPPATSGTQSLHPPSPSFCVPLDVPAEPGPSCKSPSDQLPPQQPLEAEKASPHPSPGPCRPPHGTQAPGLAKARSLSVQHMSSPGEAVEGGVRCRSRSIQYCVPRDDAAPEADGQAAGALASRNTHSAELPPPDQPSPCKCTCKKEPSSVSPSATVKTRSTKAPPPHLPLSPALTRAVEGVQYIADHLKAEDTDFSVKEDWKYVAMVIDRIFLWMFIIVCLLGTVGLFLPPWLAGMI

Structure (SMILES): CN1CC2CN(c3ccc(-c4ccccc4)nn3)CC2C1 (configuration not stated)
- bioavailability [1]: 22%
- Ki [2]: > 100 µM
- bioavailability [3]: 90%
- EC50 [4]: 4.26 µM
- Vd [5]: 4 L/kg
- bioavailability [6]: 100%
- Ki [7]: 0.017 µM
- Vd [8]: 4 L/kg
- Ki [9]: 0.0108 µM
- Ki [10]: 0.15 µM
- Ki [11]: 0.088 µM
- Vd [12]: 4 L/kg
